Where a name gives a salt, the structure may show the parent alone. Where only a bound is given, the exact number is not on record here.

The target of the experiment is T1, HiBiT tagged PARP14 (Homo sapiens, UniProt Q460N5).
T1 construct: engineered to contain a HiBiT tag on both alleles of the PARP14 gene; endogenous in cells; host or cells: Jurkat cells stably transfected with LgBiT (Promega), PARP14 locus edited by CRISPR/Cas9
T1 sequence (Q460N5 whole entry): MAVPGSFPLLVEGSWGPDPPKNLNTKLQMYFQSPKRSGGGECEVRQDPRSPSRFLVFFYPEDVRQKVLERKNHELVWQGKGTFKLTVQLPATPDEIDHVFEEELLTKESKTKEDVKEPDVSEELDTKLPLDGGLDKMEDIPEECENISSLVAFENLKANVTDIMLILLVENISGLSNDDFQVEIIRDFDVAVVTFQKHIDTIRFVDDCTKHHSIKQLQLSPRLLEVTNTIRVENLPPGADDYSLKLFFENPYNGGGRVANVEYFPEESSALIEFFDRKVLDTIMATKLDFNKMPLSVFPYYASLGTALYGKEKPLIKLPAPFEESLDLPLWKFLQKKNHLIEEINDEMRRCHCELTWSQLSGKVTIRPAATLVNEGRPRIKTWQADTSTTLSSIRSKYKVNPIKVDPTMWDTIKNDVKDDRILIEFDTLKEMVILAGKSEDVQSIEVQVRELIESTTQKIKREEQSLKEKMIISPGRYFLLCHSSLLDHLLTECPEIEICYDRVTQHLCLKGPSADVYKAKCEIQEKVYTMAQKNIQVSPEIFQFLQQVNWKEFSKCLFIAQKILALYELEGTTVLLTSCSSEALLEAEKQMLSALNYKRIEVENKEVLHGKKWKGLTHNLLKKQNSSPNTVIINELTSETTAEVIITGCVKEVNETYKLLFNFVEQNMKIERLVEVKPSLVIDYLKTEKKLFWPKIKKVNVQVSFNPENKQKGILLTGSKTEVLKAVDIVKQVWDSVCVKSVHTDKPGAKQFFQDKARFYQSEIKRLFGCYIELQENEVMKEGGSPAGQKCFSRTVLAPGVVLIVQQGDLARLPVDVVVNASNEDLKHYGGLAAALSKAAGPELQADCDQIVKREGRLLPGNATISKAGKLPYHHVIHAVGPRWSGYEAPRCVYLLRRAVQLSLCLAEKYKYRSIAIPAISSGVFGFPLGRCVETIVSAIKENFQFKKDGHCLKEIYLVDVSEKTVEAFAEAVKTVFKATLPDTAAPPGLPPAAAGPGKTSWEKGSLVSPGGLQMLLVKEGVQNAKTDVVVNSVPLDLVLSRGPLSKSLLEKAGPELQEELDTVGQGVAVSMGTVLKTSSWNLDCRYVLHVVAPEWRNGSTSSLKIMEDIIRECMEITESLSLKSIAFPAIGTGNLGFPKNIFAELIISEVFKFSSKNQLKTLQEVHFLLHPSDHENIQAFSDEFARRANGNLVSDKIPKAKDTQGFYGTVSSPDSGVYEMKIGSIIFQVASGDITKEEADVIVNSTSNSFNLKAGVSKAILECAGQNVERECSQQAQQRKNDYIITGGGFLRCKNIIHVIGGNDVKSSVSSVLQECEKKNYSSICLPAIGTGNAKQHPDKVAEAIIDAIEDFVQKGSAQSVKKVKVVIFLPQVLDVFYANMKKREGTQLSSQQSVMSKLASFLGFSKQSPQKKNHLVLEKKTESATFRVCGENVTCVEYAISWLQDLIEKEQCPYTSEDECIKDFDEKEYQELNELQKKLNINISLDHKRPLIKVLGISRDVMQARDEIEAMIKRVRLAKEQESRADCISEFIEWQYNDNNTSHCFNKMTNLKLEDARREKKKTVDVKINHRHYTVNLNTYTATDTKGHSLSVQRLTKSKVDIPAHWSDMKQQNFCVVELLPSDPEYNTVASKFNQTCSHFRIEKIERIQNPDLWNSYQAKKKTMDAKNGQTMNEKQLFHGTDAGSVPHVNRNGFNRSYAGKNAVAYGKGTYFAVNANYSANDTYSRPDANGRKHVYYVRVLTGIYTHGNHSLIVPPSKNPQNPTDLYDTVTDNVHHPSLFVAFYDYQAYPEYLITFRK
The experiment can be described thus: HiBiT assay for the degradation of PARP14 (HiBiT tagged PARP14 in LgBiT expressing Jurkat cells, 2 or 24 hours). Format: cell-based. The conditions noted are these: Assay B (Example B): HiBiT tagged PARP14 degradation in LgBiT expressing Jurkat cells, read-out: DC50. In outline: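 Jurkat cells stably expressing LgBiT with CRISPR knock-in of C-terminal HiBiT on both PARP14 alleles, 5,000 cells/well, treated with compound dose-response at 37 °C for 2 or 24 h. Live Cell Substrate luminescence normalised to 0.1% DMSO wells; DC50 from 4-parameter fit with floating top, bottom, Hill.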
For `O=C1CCC(Nc2ccc(N3CCN(CC(=O)N4CCC(COc5cc(F)c6c(=O)[nH]c(CSC7CCOCC7)nc6c5)CC4)CC3)c(F)c2)C(=O)N1` (centres unmarked) [Example 174, 3-((3-fluoro-4-(4-(2-(4-(((5-fluoro-4-oxo-2-(((tetrahydro-2H-pyran-4-yl)thio)methyl)-3,4-dihydroquinazolin-7-yl)oxy)methyl)piperidin-1-yl)-2-oxoethyl)piperazin-1-yl)phenyl)amino)piperidine-2,6-dione], the half-maximal degradation concentration (DC50) is less than 30 nM.

On to `O=C1CCC(Nc2ccc(N3CCC(CN4CCC(COc5cc(F)c6c(=O)[nH]c(CSC7CCOCC7)nc6c5)CC4)CC3)c(F)c2)C(=O)N1` (centres unmarked) [Example 144, 3-((3-fluoro-4-(4-((4-(((5-fluoro-4-oxo-2-(((tetrahydro-2H-pyran-4-yl)thio)methyl)-3,4-dihydroquinazolin-7-yl)oxy)methyl)piperidin-1-yl)methyl)piperidin-1-yl)phenyl)amino)piperidine-2,6-dione], for which the DC50 is less than 30 nM.

On to `O=C1CCN(c2ccc(C3CCN(CCN4CCC(COc5cc(F)c6c(=O)[nH]c(COC7CCOCC7)nc6c5)CC4)CC3)c(F)c2)C(=O)N1` [Example 204, 1-(3-fluoro-4-(1-(2-(4-(((5-fluoro-4-oxo-2-(((tetrahydro-2H-pyran-4-yl)oxy)methyl)-3,4-dihydroquinazolin-7-yl)oxy)methyl)piperidin-1-yl)ethyl)piperidin-4-yl)phenyl)dihydropyrimidine-2,4(1H,3H)-dione], for which the DC50 was less than 30 nM.

With `O=C1CCN(c2ccc(N3CCC(N4CC(N5CCC(COc6cc(F)c7c(=O)[nH]c(CSC8CCOCC8)nc7c6)CC5)C4)CC3)c(F)c2)C(=O)N1` [Example 157, 1-(3-fluoro-4-(4-(3-(4-(((5-fluoro-4-oxo-2-(((tetrahydro-2H-pyran-4-yl)thio)methyl)-3,4-dihydroquinazolin-7-yl)oxy)methyl)piperidin-1-yl)azetidin-1-yl)piperidin-1-yl)phenyl)dihydropyrimidine-2,4(1H,3H)-dione], the DC50 was less than 30 nM.

Take `Cn1nc(N2CCC(=O)NC2=O)c2ccc(N3CCC(N4CC(N5CCC(COc6cc(F)c7c(=O)[nH]c(CSC8CCOCC8)nc7c6)CC5)C4)CC3)cc21` [Example 161, 1-(6-(4-(3-(4-(((5-fluoro-4-oxo-2-(((tetrahydro-2H-pyran-4-yl)thio)methyl)-3,4-dihydroquinazolin-7-yl)oxy)methyl)piperidin-1-yl)azetidin-1-yl)piperidin-1-yl)-1-methyl-1H-indazol-3-yl)dihydropyrimidine-2,4(1H,3H)-dione]: the half-maximal degradation concentration (DC50) is less than 30 nM.

Regarding `O=C1CCC(Nc2ccc(N3CCN(CCN4CCC(COc5cc(F)c6c(=O)[nH]c(CSC7CCOCC7)nc6c5)CC4)CC3)cn2)C(=O)N1` (centres unmarked) [Example 119], the DC50 is less than 30 nM.

Take `O=C1CCC(Nc2ccc(N3CCN(CCN4CCC(COc5cc(F)c6c(=O)[nH]c(COC7CCOCC7)nc6c5)CC4)CC3)c(F)c2)C(=O)N1` (single isomer, unassigned) [Example 99b, 3-((3-fluoro-4-(4-(2-(4-(((5-fluoro-4-oxo-2-(((tetrahydro-2H-pyran-4-yl)oxy)methyl)-3,4-dihydroquinazolin-7-yl)oxy)methyl)piperidin-1-yl)ethyl)piperazin-1-yl)phenyl)amino)piperidine-2,6-dione]: the DC50 is less than 30 nM.

As for `O=C1CCN(c2cnc3cc(N4CCC(N5CC(N6CCC(COc7cc(F)c8c(=O)[nH]c(COC9CCOCC9)nc8c7)CC6)C5)CC4)ccn23)C(=O)N1` [Example 168, 1-(7-(4-(3-(4-(((5-fluoro-4-oxo-2-(((tetrahydro-2H-pyran-4-yl)oxy)methyl)-3,4-dihydroquinazolin-7-yl)oxy)methyl)piperidin-1-yl)azetidin-1-yl)piperidin-1-yl)imidazo[1,2-a]pyridin-3-yl)dihydropyrimidine-2,4(1H,3H)-dione], the DC50 is less than 30 nM.

Consider `O=C1CCC(Nc2ccc(N3CCC(C(=O)N4CC(N5CCC(COc6cc(F)c7c(=O)[nH]c(CSC8CCOCC8)nc7c6)CC5)C4)CC3)c(F)c2)C(=O)N1` (centres unmarked) [Example 152, 3-((3-fluoro-4-(4-(3-(4-(((5-fluoro-4-oxo-2-(((tetrahydro-2H-pyran-4-yl)thio)methyl)-3,4-dihydroquinazolin-7-yl)oxy)methyl)piperidin-1-yl)azetidine-1-carbonyl)piperidin-1-yl)phenyl)amino)piperidine-2,6-dione formate], for which the DC50 was less than 30 nM.

Turning to `O=C1CCC(Nc2ccc(N3CCC(N4CC(N5CCC(COc6cc(F)c7c(=O)[nH]c(CSC8CCOCC8)nc7c6)CC5)C4)CC3)c(F)c2)C(=O)N1` (centres unmarked) [Example 116, 3-((3-fluoro-4-(4-(3-(4-(((5-fluoro-4-oxo-2-(((tetrahydro-2H-pyran-4-yl)thio)methyl)-3,4-dihydroquinazolin-7-yl)oxy)methyl)piperidin-1-yl)azetidin-1-yl)piperidin-1-yl)phenyl)amino)piperidine-2,6-dione], the 50% degradation concentration (DC50) was less than 30 nM.

Turning to `O=C1CCC(Nc2ccc(N3CCC(N4CC(CN5CCC(COc6cc(F)c7c(=O)[nH]c(CSC8CCOCC8)nc7c6)CC5)C4)CC3)c(F)c2)C(=O)N1` (centres unmarked) [Example 232, 3-((3-fluoro-4-(4-(3-((4-(((5-fluoro-4-oxo-2-(((tetrahydro-2H-pyran-4-yl)thio)methyl)-3,4-dihydroquinazolin-7-yl)oxy)methyl)piperidin-1-yl)methyl)azetidin-1-yl)piperidin-1-yl)phenyl)amino)piperidine-2,6-dione], the DC50 was less than 30 nM.

For the molecule `O=C1CCC(Nc2ccc(N3CCC(N4CC(N5CCC(COc6cc(F)c7c(=O)[nH]c(COC8CCOCC8)nc7c6)CC5)C4)CC3)c(F)c2)C(=O)N1` (single isomer, unassigned) [Example 136a, 3-((3-fluoro-4-(4-(3-(4-(((5-fluoro-4-oxo-2-(((tetrahydro-2H-pyran-4-yl)oxy)methyl)-3,4-dihydroquinazolin-7-yl)oxy)methyl)piperidin-1-yl)azetidin-1-yl)piperidin-1-yl)phenyl)amino)piperidine-2,6-dione], the DC50 was less than 30 nM.

In the case of `O=C1CCC(Nc2ccc(N3CCC(N4CCC(COc5cc(F)c6c(=O)[nH]c(CCC7CCOCC7)nc6c5)CC4)CC3)c(F)c2)C(=O)N1` (single isomer, unassigned) [Example 117a, 3-((3-fluoro-4-(4-(((5-fluoro-4-oxo-2-(2-(tetrahydro-2H-pyran-4-yl)ethyl)-3,4-dihydroquinazolin-7-yl)oxy)methyl)-[1,4′-bipiperidin]-11′-yl)phenyl)amino)piperidine-2,6-dione], the DC50 is less than 30 nM.

For the molecule `O=C1CCC(N2C(=O)c3cccc4c(N5CCC(N6CC(N7CCC(COc8cc(F)c9c(=O)[nH]c(CSC%10CCOCC%10)nc9c8)CC7)C6)CC5)ccc2c34)C(=O)N1` (centres unmarked) [Example 169, 3-(6-(4-(3-(4-(((5-fluoro-4-oxo-2-(((tetrahydro-2H-pyran-4-yl)thio)methyl)-3,4-dihydroquinazolin-7-yl)oxy)methyl)piperidin-1-yl)azetidin-1-yl)piperidin-1-yl)-2-oxobenzo[cd]indol-1(2H)-yl)piperidine-2,6-dione], the DC50 is less than 30 nM.

As to `O=C1CCC(Nc2ccc(N3CCN(CCN4CCC(COc5cc(F)c6c(=O)[nH]c(CSC7CCCCC7)nc6c5)CC4)CC3)c(F)c2)C(=O)N1` (centres unmarked) [Example 194, 3-({4-[4-(2-{4-[({2-[(cyclohexylsulfanyl)methyl]-5-fluoro-4-oxo-3H-quinazolin-7-yl}oxy)methyl]piperidin-1-yl}ethyl)piperazin-1-yl]-3-fluorophenyl}amino)piperidine-2,6-dione], the DC50 is less than 30 nM.

For `O=C1CCC(Nc2ccc(C(=O)N3CCN(CCN4CCC(COc5cc(F)c6c(=O)[nH]c(CSC7CCOCC7)nc6c5)CC4)CC3)cc2)C(=O)N1` (centres unmarked) [Example 188, 3-((4-(4-(2-(4-(((5-fluoro-4-oxo-2-(((tetrahydro-2H-pyran-4-yl)thio)methyl)-3,4-dihydroquinazolin-7-yl)oxy)methyl)piperidin-1-yl)ethyl)piperazine-1-carbonyl)phenyl)amino)piperidine-2,6-dione], the 50% degradation concentration (DC50) was less than 30 nM.

Consider `O=C1CCC(Nc2ccc(N3CCC(CCN4CCC(COc5cc(F)c6c(=O)[nH]c(CSC7CCOCC7)nc6c5)CC4)CC3)cc2)C(=O)N1` (centres unmarked) [Example 118, 3-((4-(4-(2-(4-(((5-fluoro-4-oxo-2-(((tetrahydro-2H-pyran-4-yl)thio)methyl)-3,4-dihydroquinazolin-7-yl)oxy)methyl)piperidin-1-yl)ethyl)piperidin-1-yl)phenyl)amino)piperidine-2,6-dione], for which the DC50 was less than 30 nM.

Take `O=C1CCC(Nc2ccc(N3CCC(N4CCC(COc5cc(F)c6c(=O)[nH]c(COC7CCOCC7)nc6c5)CC4)CC3)cc2)C(=O)N1` (centres unmarked) [Example 115]: the DC50 was less than 30 nM.

As for `O=C1CCN(c2ccc(N3CCN(CCN4CCC(COc5cc(F)c6c(=O)[nH]c(COC7CCOCC7)nc6c5)CC4)CC3)c(F)c2)C(=O)N1` [Example 197, 1-(3-fluoro-4-(4-(2-(4-(((5-fluoro-4-oxo-2-(((tetrahydro-2H-pyran-4-yl)oxy)methyl)-3,4-dihydroquinazolin-7-yl)oxy)methyl)piperidin-1-yl)ethyl)piperazin-1-yl)phenyl)dihydropyrimidine-2,4(1H,3H)-dione], the DC50 is less than 30 nM.

Turning to `O=C1CCC(Nc2ccc(N3CCC(N4CC(N5CCC(COc6cc(F)c7c(=O)[nH]c(CCC8CCOCC8)nc7c6)CC5)C4)CC3)c(F)c2)C(=O)N1` (centres unmarked) [Example 146, 3-((3-fluoro-4-(4-(3-(4-(((5-fluoro-4-oxo-2-(2-(tetrahydro-2H-pyran-4-yl)ethyl)-3,4-dihydroquinazolin-7-yl)oxy)methyl)piperidin-1-yl)azetidin-1-yl)piperidin-1-yl)phenyl)amino)piperidine-2,6-dione formate], the DC50 is less than 30 nM.

Source of the values: patent US20240101540A1, “TARGETED PROTEIN DEGRADATION OF PARP14 FOR USE IN THERAPY” (Ribon Therapeutics, Inc., priority 2022, published 2024).
